One series has as its system human skin. Description: Tolerability of topical NVX-207 on human skin. The conditions noted are these: 1% topical solution (200 μl, 20% ethanol, 20% Tween 80 in water), human arm, once a day for one week; checked up to 6 months after. It is filed as in vivo. As to the method: A 1% topical solution of NVX-207 (200 μl total volume in 20% ethanol, 20% Tween® 80 in water) was topically applied to an area of skin on a human arm once a day for one week. A control solution (20% ethanol/20% Tween® 80 and 80% water) was applied to an area of skin adjacent to the area to which the NVX-207 solution was applied, also for one week.

Series [1] deals with human umbilical vein endothelial cells (HUVEC). Description: Survival of HUVEC at 80% and 30% confluency. In kind it is cell-based. The settings on record: 2.5 μM; for Mean survival, percentage of control-treated cells: HUVEC, n=3. As to the method:
All cells were treated with 2.5 μM NVX-207. Percentage (means±S.E., n=3) of control-treated cells are given. […] Mean survival in NVX-207 treated fibroblasts at 80% confluency was 92% (S.E.=3.8) versus 3.8% mean survival (S.E.=0.4) at 30% confluency. […] HUVECs, keratinocytes and fibroblast cells were obtained from Lonza GmbH (Wuppertal, Germany) and cultivated according to the manufacturer's instructions.
Human umbilical vein endothelial cells (HUVEC), keratinocytes and fibroblast cells were obtained from Lonza GmbH (Wuppertal, Germany) and cultivated according to the manufacturer's instructions. […] The IC50 value of betulinic acid in human keratinocytes was recently determined to be ˜5.0 μg/ml (Tino Galgon al., Exp Dermatol. 14:736-43, 2005), while the IC50 of NVX-207 is ˜0.7 µg/ml. […] Mean survival in NVX-207 treated fibroblasts at 80% confluency was 92% (S.E.=3.8) versus 3.8% mean survival (S.E.=0.4) at 30% confluency. […] Under normal physiological conditions, the endothelium, as well as skin fibroblasts and skin keratinocytes, show relatively low turn-over and limited cell divisions to maintain tissue integrity.
Keratinocytes at high confluence (e.g., 80%) mimic normal physiological conditions in which these cells divide more slowly (fewer cell divisions per unit of time). In contrast, keratinocytes in psoriatic lesions divide more rapidly, as do keratinocytes cultured at lower confluency (e.g., 30%). Thus, the 30% confluency conditions were considered a model for psoriasis whereas the behavior of 80% confluent cells more closely reflects the conditions observed in normal skin.

The subject of another series is SK-N-DZ. Nature of the series: Cell growth/survival, SK-N-DZ neuronal cancer cells. The settings on record: Homo sapiens, TP53 mut. It is filed as cell-based. As to the method: (§1) Melanoma cell lines used in this study were maintained in Dulbecco's modified Eagle medium (DMEM with 4500 mg/l glucose) supplemented with 10% FCS from Gibco BRL (Life Technologies, Berlin, Germany). The canine mastocytoma cell line C2 (DeVinney et al, Am. J. Respir. Cell Mol. Biol. 3:413-20, 1990) was used in this study, along with additional human cell lines: RD-ES and TC-71 (human Ewing's sarcoma), SAOS2 (human osteosarcoma), HT-1080 (human fibrosarcoma), Caco-2 (human colon adenocarcinoma), A549 (human lung adenocarcinoma), Hep-G2 and Hep-3B (human hepatocellular carcinoma), SK-N-DZ and SK-N-FI (human embryonal neuroblastoma), HTB9 (human bladder cancer), MDA-468 and MCF-7 (human breast cancer) and SW872 liposarcoma. All breast cancer cells were routinely cultured in DMEM/F-12 or in DMEM alone supplemented with 10% FCS at 37° C. in a humidified 5% CO2 atmosphere. RD-ES and TC-71 sarcoma cell lines were maintained in RPMI 1640 (Biochrom KG, Berlin, Germany) containing 10% FCS at 37° C. in a humidified 5% CO2 atmosphere. […]
(§2) Briefly, cells were maintained in standard medium, harvested, and plated at equal densities (750,000 cells in 5 cm tissue culture dishes). […] For the assessment of cell growth, the number of surviving cells was determined using an automated cell counter from Beckman Coulter GmbH (Krefeld, Germany). […]

Series [2] deals with canine mammary carcinoma, scent gland carcinoma, soft tissue sarcoma. Nature of the series: Activity of NVX-207 in additional canine cancer patients (summary). The settings on record: dog, in vivo. The source says:
Overall survival time is given in months.

The test system of another series is Caco-2. Nature of the series: Cell growth/survival, Caco-2 colon adenocarcinoma cells. The conditions noted are these: Homo sapiens, TP53 neg. It is filed as cell-based. As for the experimental part:
as §1, §2

In a further series the test system is Melanoma-TLM1. Nature of the series: Cell growth/survival, canine melanoma TLM1 cells. It is filed as cell-based. The conditions noted are these: Canis lupus familiaris. As for the experimental part:
as §1, §2

The test system of the next series is pigs. The settings on record: pig, in vivo.
A further series concerns Mastocytoma-C2. Description: Cell growth/survival, canine mastocytoma C2 cells. It is filed as cell-based. The conditions noted are these: Canis lupus familiaris. As for the experimental part:
as §1, §2

Another series deals with Hep-G2. Description: Cell growth/survival, Hep-G2 hepatocellular carcinoma cells. In kind it is cell-based. The settings on record: Homo sapiens, HepG2, TP53 neg. As for the experimental part: as §1, §2
Series [3] deals with hyperkeratotic palpable lesion with inflammatory components. Description: Topical treatment of human hyperkeratotic lesions with inflammatory components. The conditions noted are these: 1% topical solution. In kind it is in vivo. As to the method:
A 1% topical solution of NVX-207 (20% ethanol, 20% Tween® 80 and 80% water) was applied to human skin to treat a treatment resistant hyperkeratotic palpable lesion with inflammatory components. The NVX-207 was administered once a day on days 1, 2, 3, 10, 11, 12 and 13. Significant improvement (better than 80% reduction) was observed after one day, and additional improvement was observed after a total of six additional treatments applied within 14 days. […] A second identical lesion was treated with the same formulation twice a day for 2 days, and disappeared.

For the next series, the system named is 518A2. Nature of the series: Cell growth/survival, 518A2 melanoma cells. The settings on record: Homo sapiens, TP53 mut. In kind it is cell-based. As to the method: as §1, §2

The structures appear in SMILES notation.

The IC50 is the midpoint of a concentration-inhibition curve.

`C=C(C)[C@@H]1CC[C@]2(C(=O)OCC(N)(CO)CO)CC[C@]3(C)[C@H](CC[C@@H]4[C@@]5(C)CC[C@H](OC(C)=O)C(C)(C)[C@@H]5CC[C@]43C)[C@@H]12` [NVX-207, 3-O-acetylbetulinic acid-2-amino-3-hydroxy-2-hydroxymethylpropyl ester]: the “Undesirable (toxic) effects on treated skin” value with human skin is recorded as “no undesirable (toxic) effects”. In addition, the “Mean survival, percentage of control-treated cells” value is recorded as 18.3% in series [1] (30% confluency) and 90.3% in series [1] (80% confluency). Further, in series [1] (endothelial cells), the “More effective at 30% confluency compared to 80% confluency” value is around 5 fold. Moreover, the IC50 with SK-N-DZ is 2.7 µM; in the series on Caco-2, 2.7 µM; in the series with Melanoma-TLM1, 3.8 µM; in the series with Mastocytoma-C2, 3 µM; in the series with Hep-G2, 3.3 µM; with 518A2 it was 2.6 µM. In addition, in series [2], the Inflammation during treatment entry is “absence of inflammation”. Besides, the “Blood chemistry and hematology (blood status, mineral homoeostasis, liver and kidney functions)” value in the series with pigs is on record as “did not reflect any systemic NVX-207-induced impact”. Moreover, in the series with pigs, the “Histopathological changes in skin biopsies” value is recorded as “No treatment-related histopathological changes were observed”. Moreover, in the series on pigs (2 weeks), the Macroscopic skin irritations entry was “No macroscopic NVX-207 related skin irritations were observed”. The “Deleterious (toxic) effects on the treated areas (inflammation, redness, swelling)” value in series [3] is “No deleterious (toxic) effects”. Besides, in series [3] (after one day), the “Improvement (reduction) of lesion” value is given as above 80%. Besides, the Side effects entry in series [3] (first lesion) is given as “No reddening, inflammation or any other side effects were observed”.

(Values after patent US20150306110A1, “COMPOSITIONS AND METHODS FOR TREATMENT OF INFLAMMATION AND HYPERKERATOTIC LESIONS” (Novelix Pharmaceuticals, Inc., priority 2008, published 2015).)
